Laboratory results taken from ChEMBL document CHEMBL5096227, “Discovery of Ervogastat (PF-06865571): A Potent and Selective Inhibitor of Diacylglycerol Acyltransferase 2 for the Treatment of Non-alcoholic Steatohepatitis” (J Med Chem, 2022).

Assays:
[1] = Half life in cynomolgus monkey at 1 mg/kg, iv; assay type: ADME, organism-based, Macaca fascicularis; conditions: in vivo
[2] = Inhibition of [14C]-glycerol incorporation into triglycerides in human primary hepatocytes; assay type: functional, cell-based; conditions: hepatocyte
[3] = target: T1, Cytochrome P450 2B6 (Homo sapiens, UniProt P20813); assay: Reversible inhibition of CYP2B6 in pooled human liver microsomes; assay type: ADME, Microsome
T1 sequence (P20813 whole entry): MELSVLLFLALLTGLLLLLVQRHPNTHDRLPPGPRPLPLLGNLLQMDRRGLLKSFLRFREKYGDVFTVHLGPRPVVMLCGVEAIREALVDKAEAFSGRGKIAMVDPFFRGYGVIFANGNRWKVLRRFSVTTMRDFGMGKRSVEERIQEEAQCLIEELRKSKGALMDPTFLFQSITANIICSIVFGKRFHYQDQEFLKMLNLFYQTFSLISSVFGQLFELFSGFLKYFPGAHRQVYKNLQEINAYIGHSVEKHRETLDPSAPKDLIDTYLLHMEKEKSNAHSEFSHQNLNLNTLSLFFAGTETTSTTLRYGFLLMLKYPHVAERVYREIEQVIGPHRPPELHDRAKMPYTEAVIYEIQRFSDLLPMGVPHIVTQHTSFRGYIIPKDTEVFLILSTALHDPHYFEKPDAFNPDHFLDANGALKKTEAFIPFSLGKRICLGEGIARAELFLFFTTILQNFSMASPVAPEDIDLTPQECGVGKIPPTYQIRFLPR

[4] = Plasma protein binding in rat assessed as unbound fraction ratio at 2 uM; assay type: ADME, cell-free
[5] = In vivo inhibition of DGAT2 in high fat/high cholesterol diet fed Sprague-Dawley rat model assessed as reduction in hepatic triglyceride level at 90 mg/kg, po administered twice daily for 7 days starting from day 14 post diet and measured 2 hrs post last dose relative to control; assay type: functional; design: scale not given: the % may be the effect or the level left; conditions: time 7 day
[6] = Plasma protein binding in cynomolgus monkey assessed as unbound fraction ratio at 2 uM; assay type: ADME, cell-free, Macaca fascicularis
[7] = Inhibition of [14C]-glycerol incorporation into triglycerides in rat primary hepatocytes; assay type: functional, cell-based; conditions: hepatocyte
[8] = Half life in Wistar Han rat at 1 mg/kg, iv; assay type: ADME, organism-based; conditions: in vivo
[9] = Half life in cynomolgus monkey at 5 mg/kg, po; assay type: ADME, organism-based, Macaca fascicularis; conditions: in vivo
[10] = Drug metabolism in cryopreserved human hepatocytes assessed as oxidation of THF ring mediated metabolite formation at 10 uM measured for 240 mins by HPLC-UV-MS analysis; assay type: ADME, cell-based, Hepatocyte; conditions: 4 h
[11] = Plasma clearance in cynomolgus monkey at 1 mg/kg, iv; assay type: ADME, organism-based, Macaca fascicularis
[12] = Toxicity in non-human primates assessed as development-limiting toxicity
[13] = target: Cytochrome P450 2C9 (Homo sapiens, UniProt P11712); assay: Reversible inhibition of CYP2C9 in pooled human liver microsomes using 4-Hydroxydiclofenac as substrate incubated for 10 mins in presence of NADPH by HPLC-MS/MS analysis; assay type: ADME, Microsome
[14] = target: CYP3A4/5 (Homo sapiens, UniProt P08684+P20815); assay: Reversible inhibition of CYP3A4/5 in pooled human liver microsomes; assay type: ADME, Microsome
[15] = Genotoxicity in human TK6 cells by micronucleus test; assay type: toxicity, cell-based
[16] = Plasma protein binding in human assessed as unbound fraction ratio at 2 uM; assay type: ADME, cell-free
[17] = system: Rattus norvegicus; assay: In vivo inhibition of DGAT2 in sucrose diet fed Sprague-Dawley rat assessed as reduction in triglyceride level administered as single oral dose and measured after 2 hrs; assay type: functional, organism-based; conditions: dose 0.3-90 mg/kg, DDE = dose-dependent effect
[18] = target: T2, Cytochrome P450 2C8 (Homo sapiens, UniProt P10632); assay: Reversible inhibition of CYP2C8 in pooled human liver microsomes using desethylamodiaquine as substrate incubated for 10 mins in presence of NADPH by HPLC-MS/MS analysis; assay type: ADME, Microsome
T2 sequence (P10632 whole entry): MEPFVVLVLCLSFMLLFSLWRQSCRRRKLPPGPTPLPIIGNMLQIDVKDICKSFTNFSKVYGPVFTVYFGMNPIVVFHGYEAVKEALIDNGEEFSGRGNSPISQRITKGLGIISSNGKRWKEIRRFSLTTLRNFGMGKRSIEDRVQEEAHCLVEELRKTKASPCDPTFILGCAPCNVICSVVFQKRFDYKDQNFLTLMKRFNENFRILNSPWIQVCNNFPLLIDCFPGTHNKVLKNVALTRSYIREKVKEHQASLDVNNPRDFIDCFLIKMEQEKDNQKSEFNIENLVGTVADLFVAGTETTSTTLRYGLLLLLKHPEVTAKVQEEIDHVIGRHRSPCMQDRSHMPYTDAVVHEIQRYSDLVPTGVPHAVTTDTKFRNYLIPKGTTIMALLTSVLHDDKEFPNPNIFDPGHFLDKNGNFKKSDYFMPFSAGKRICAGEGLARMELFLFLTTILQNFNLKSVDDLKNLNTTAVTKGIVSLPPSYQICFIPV

[19] = Half life in human; assay type: ADME
[20] = physchem; conditions: buffer, pH 7.4
Description: Lipophilicity, logD of compound at pH 7.4 by shake flask method

[21] = Oral bioavailability in Wistar Han rat at 5 mg/kg; assay type: ADME, organism-based; conditions: in vivo
[22] = Drug metabolism in rat hepatocytes assessed as hydrolytic cleavage of amide bond mediated metabolite formation; assay type: ADME, cell-based, Hepatocyte
[23] = In vivo inhibition of DGAT2 in sucrose diet fed Sprague-Dawley rat assessed as reduction in triglyceride level at 90 mg/kg, po administered as single dose and measured after 2 hrs relative to control; assay type: functional; design: scale not given: the % may be the effect or the level left
[24] = Drug metabolism in monkey hepatocytes assessed as O-deethylation mediated pyridin-3-ol mediated metabolite formation; assay type: ADME, cell-based, Macaca mulatta, Hepatocyte; conditions: rhesus monkey
[25] = target: Cytochrome P450 2C19 (Homo sapiens, UniProt P33261); assay: Reversible inhibition of CYP2C19 in pooled human liver microsomes using 4-Hydroxymephenytoin as substrate incubated for 20 mins in presence of NADPH by HPLC-MS/MS analysis; assay type: ADME, Microsome
[26] = Drug metabolism in rat hepatocytes assessed as O-deethylation mediated pyridin-3-ol mediated metabolite formation; assay type: ADME, cell-based, Hepatocyte
[27] = Oral bioavailability in cynomolgus monkey at 5 mg/kg; assay type: ADME, organism-based, Macaca fascicularis; conditions: in vivo
[28] = Drug metabolism in cryopreserved human hepatocytes assessed as O-dearylation mediated oxidative metabolite formation at 10 uM measured for 240 mins by HPLC-UV-MS analysis; assay type: ADME, cell-based, Hepatocyte; conditions: 4 h
[29] = Volume of distribution at steady state in cynomolgus monkey at 1 mg/kg, iv; assay type: ADME, organism-based, Macaca fascicularis; conditions: in vivo, read-out: Vdss
[30] = system: Rattus norvegicus; assay: In vivo inhibition of DGAT2 in high fat/high cholesterol diet fed Sprague-Dawley rat model assessed as reduction in hepatic triglyceride level administered orally twice daily for 7 days starting from day 14 post diet and measured 2 hrs post last dose; assay type: functional, organism-based; conditions: dose 0.3-90 mg/kg, route po, time 7.0 day, DDE = dose-dependent effect
[31] = Cardiotoxicity in non-human primates assessed as development-limiting toxicity
[32] = Volume of distribution at steady state in Wistar Han rat at 1 mg/kg, iv; assay type: ADME, organism-based; conditions: in vivo, read-out: Vdss
[33] = Drug metabolism in monkey hepatocytes assessed as oxidation of THF ring mediated metabolite formation; assay type: ADME, cell-based, Macaca mulatta, Hepatocyte; conditions: rhesus monkey
[34] = Inhibition of [14C]-glycerol incorporation into triglycerides in monkey primary hepatocytes; assay type: functional, cell-based, Macaca mulatta; conditions: hepatocyte
[35] = Half life in Wistar Han rat at 5 mg/kg, po; assay type: ADME, organism-based; conditions: in vivo

Sequence of Cytochrome P450 2C9 (P11712 whole entry): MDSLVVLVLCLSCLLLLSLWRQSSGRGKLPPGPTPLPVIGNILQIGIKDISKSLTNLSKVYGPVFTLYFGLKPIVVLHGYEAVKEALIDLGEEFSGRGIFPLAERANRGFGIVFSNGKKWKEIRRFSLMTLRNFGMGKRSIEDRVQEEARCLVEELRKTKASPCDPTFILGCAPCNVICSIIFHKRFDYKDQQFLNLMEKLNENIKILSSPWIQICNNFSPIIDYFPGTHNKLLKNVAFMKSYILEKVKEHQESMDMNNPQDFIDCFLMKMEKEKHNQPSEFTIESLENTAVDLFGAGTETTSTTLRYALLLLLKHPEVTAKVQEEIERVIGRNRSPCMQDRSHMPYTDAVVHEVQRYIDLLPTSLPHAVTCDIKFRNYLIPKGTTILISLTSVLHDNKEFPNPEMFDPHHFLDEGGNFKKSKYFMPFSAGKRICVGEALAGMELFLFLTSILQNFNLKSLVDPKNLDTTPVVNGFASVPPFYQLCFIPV
Sequence of Cytochrome P450 2C19 (P33261 whole entry): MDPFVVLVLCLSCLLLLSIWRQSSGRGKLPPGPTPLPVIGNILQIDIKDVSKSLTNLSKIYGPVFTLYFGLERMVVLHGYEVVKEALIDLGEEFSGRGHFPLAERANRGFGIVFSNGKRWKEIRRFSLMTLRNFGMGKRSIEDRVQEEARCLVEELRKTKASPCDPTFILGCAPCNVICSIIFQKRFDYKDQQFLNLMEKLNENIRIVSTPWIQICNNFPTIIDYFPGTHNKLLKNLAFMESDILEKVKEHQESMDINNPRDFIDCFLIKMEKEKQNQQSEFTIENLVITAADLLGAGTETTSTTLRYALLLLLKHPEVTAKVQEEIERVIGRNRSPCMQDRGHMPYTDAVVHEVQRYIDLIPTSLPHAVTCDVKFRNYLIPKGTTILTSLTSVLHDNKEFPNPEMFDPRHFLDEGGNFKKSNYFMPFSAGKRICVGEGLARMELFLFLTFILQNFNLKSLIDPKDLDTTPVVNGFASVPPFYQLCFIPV

half-life [1]: 1 h
IC50 [3]: > 100 µM
Ratio [4]: 0.213
Ratio [6]: 0.36
half-life [8]: 0.3 h
half-life [9]: 4 h
Drug metabolism [10]: Metabolite_Detected
clearance [11]: 10 mL/min/kg
IC50 [13]: 8.7 µM
IC50 [14]: > 100 µM
Ratio [16]: 0.353
IC50 [18]: > 100 µM
half-life [19]: 5 h
logD [20]: 1.9
bioavailability [21]: 31%
Drug metabolism [22]: Metabolite_Detected
Drug metabolism [24]: Metabolite_Detected
IC50 [25]: 57 µM
Drug metabolism [26]: Metabolite_Detected
bioavailability [27]: 48%
Drug metabolism [28]: Metabolite_Detected
Vd [29]: 0.7 L/kg
Vd [32]: 0.9 L/kg
Drug metabolism [33]: Metabolite_Detected
half-life [35]: 1 h
SMILES: CCOc1cccnc1Oc1cncc(-c2ncc(C(=O)N[C@H]3CCOC3)cn2)c1 [PF-06865571]
IC50 [2]: 0.00279 µM
Activity [5]: 49%
IC50 [7]: 0.00602 µM
Activity [12]: Non-Toxic
Activity [15]: Non-Toxic
inhibition [17]: Dde
Activity [23]: 76%
Activity [30]: Dde
Activity [31]: Non-Toxic
IC50 [34]: 0.00213 µM
